Assay results as given in patent US9546164B2 (GENENTECH, INC., priority 2013, dated 2017).
Structures can show the parent of a compound that is named as a salt.

Biological target: hNav1.7 (Homo sapiens (Human), UniProt Q15858)
Experiment: Tritiated sulfonamide competitive binding to membranes from cells expressing hNav1.7 and the β1 subunit;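 also: Filter-bound radioactivity counted by liquid scintillation, nonspecific binding defined with excess unlabelled ligand, IC50 fitted to percent inhibition of specific binding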
Conditions: not given

Chain of hNav1.7 (Q15858 other isoform, or with tags, fused parts or gaps): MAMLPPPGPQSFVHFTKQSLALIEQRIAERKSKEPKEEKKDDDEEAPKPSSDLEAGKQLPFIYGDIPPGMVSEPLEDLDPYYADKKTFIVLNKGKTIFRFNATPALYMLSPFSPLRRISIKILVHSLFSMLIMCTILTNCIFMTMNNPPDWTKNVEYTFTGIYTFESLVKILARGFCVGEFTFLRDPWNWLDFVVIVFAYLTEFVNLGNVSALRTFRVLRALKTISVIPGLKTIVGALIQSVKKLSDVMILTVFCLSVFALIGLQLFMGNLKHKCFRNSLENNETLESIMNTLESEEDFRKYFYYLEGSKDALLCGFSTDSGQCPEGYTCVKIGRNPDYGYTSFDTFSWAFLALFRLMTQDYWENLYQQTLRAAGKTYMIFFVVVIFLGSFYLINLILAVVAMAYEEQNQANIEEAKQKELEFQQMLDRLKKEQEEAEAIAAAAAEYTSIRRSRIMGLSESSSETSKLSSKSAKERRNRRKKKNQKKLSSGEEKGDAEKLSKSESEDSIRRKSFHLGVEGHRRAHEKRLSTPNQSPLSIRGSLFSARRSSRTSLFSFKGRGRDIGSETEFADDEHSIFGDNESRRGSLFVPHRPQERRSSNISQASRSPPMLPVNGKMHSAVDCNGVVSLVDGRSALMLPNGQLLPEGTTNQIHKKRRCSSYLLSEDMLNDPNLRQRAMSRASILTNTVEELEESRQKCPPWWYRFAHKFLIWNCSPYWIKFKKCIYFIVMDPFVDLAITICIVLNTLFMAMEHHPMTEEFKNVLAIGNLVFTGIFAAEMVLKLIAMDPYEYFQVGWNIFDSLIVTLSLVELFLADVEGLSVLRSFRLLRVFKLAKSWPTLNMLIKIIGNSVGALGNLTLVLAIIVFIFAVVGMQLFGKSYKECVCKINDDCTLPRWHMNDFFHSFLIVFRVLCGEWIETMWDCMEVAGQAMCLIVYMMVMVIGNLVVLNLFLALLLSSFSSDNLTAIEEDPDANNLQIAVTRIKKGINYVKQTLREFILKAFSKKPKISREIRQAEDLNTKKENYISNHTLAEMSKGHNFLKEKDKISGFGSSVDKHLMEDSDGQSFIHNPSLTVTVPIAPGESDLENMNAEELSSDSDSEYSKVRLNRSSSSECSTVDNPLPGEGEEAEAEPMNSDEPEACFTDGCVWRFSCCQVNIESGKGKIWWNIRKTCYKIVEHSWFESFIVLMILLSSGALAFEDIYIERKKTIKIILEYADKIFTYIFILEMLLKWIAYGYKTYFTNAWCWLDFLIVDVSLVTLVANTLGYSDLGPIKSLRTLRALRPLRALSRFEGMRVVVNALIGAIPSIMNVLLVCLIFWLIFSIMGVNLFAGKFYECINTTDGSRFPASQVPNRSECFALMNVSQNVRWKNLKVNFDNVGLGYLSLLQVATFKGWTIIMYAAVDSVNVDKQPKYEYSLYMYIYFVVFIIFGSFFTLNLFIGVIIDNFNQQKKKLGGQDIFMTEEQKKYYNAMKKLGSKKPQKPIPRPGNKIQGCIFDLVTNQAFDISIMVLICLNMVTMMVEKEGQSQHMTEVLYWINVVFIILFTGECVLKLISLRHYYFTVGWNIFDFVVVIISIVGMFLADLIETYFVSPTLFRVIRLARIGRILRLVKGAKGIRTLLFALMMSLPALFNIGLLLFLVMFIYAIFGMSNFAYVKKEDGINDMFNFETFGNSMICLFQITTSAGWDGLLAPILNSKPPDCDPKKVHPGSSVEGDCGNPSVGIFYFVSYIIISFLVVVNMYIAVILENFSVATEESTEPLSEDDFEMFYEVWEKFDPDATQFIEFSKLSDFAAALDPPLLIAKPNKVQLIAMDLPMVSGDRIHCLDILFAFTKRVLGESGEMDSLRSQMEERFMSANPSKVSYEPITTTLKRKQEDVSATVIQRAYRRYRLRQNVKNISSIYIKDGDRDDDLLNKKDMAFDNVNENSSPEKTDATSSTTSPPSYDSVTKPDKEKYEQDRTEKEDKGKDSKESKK
Chain of hNav1.7 (Q07699 19-218 partner): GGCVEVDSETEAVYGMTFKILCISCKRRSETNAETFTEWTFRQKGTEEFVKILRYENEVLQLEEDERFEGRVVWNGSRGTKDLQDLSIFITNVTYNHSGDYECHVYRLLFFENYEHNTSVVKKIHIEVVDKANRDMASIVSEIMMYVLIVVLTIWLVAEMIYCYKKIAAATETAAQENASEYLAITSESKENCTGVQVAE

SMILES	IC50 [nM]
C[C@H](c1cc(Cl)cc(Cl)c1)N1CCN(Cc2cc(F)c(C(=O)NS(C)(=O)=O)cc2C2CC2)C[C@@H]1C [Example 565, 5-cyclopropyl-4-(((S)-4-((R)-1-(3,5-dichlorophenyl)ethyl)-3-methylpiperazin-1-yl)methyl)-2-fluoro-N-(methylsulfonyl)benzamide]	4.1
O=C(NS(=O)(=O)N1CCC1)c1cc(C2CC2)c(O[C@@H]2CCCN(c3ccc(F)cc3)C2)cc1F [Example 37, (R)—N-(azetidin-1-ylsulfonyl)-5-cyclopropyl-2-fluoro-4-((1-(4-fluorophenyl)piperidin-3-yl)oxy)benzamide, trifluoroacetic acid salt]	15.1
O=C(NS(=O)(=O)C1CC1)c1cc(C2CC2)c(O[C@@H]2CCCN(c3ccc(F)cc3)C2)cc1F [Example 38, (R)-5-cyclopropyl-N-(cyclopropylsulfonyl)-2-fluoro-4-((1-(4-fluorophenyl)piperidin-3-yl)oxy)benzamide]	3.9
O=C(NS(=O)(=O)C1CC1)c1cc(C2CC2)c(CN2CCC(Oc3ccccc3C(F)(F)F)CC2)cc1F [Example 498, 5-cyclopropyl-N-(cyclopropylsulfonyl)-2-fluoro-4-((4-(2-(trifluoromethyl)phenoxy)piperidin-1-yl)methyl)benzamide]	87.4
O=C(NS(=O)(=O)N1CCC1)c1cc(C2CC2)c(O[C@@H]2CCCN(Cc3cc(Cl)cc(Cl)c3)C2)cc1F [Example 5, (R)—N-(azetidin-1-ylsulfonyl)-5-cyclopropyl-4-((1-(3,5-dichlorobenzyl)piperidin-3-yl)oxy)-2-fluoroenzamide]	7.1
CS(=O)(=O)NC(=O)c1cc(C2CC2)c(CN2CCC(Oc3ccccc3C(F)(F)F)CC2)cc1F [Example 497, 5-cyclopropyl-2-fluoro-N-(methylsulfonyl)-4-((4-(2-(trifluoromethyl)phenoxy)piperidin-1-yl)methyl)benzamide]	14.3
Cc1ccc(CN2CCC[C@@H](Oc3cc(F)c(C(=O)NS(=O)(=O)C4CC4)cc3C3CC3)C2)cc1 [Example 32, (R)-5-cyclopropyl-N-(cyclopropylsulfonyl)-2-fluoro-4-((1-(4-methylbenzyl)piperidin-3-yl)oxy)benzamide]	5.4
O=C(NS(=O)(=O)C1CC1)c1cc(C2CC2)c(CN2CCC(Oc3ccc(F)cc3)CC2)cc1F [Example 508, 5-cyclopropyl-N-(cyclopropylsulfonyl)-2-fluoro-4-((4-(4-fluorophenoxy)piperidin-1-yl)methyl)benzamide, trifluoroacetic acid salt]	44

Same assay, conditions: read-out: Ligand Binding Assay; 100 pM [3H]compound, membranes with hNav1.7 and β1 subunit, 18 h, room temperature

SMILES	IC50 [nM]
CS(=O)(=O)NC(=O)c1cc(C2CC2)c(OC[C@@H]2CCCN(Cc3cc(Cl)cc(Cl)c3)C2)cc1F [Example 334, (R)-5-cyclopropyl-4-((1-(3,5-dichlorobenzyl)piperidin-3-yl)methoxy)-2-fluoro-N-(methylsulfonyl)benzamide]	7.1
O=C(NS(=O)(=O)C1CC1)c1cc(C2CC2)c(OCC2CCN(C(=O)c3ccc(Cl)c(Cl)c3)CC2)cc1F [Example 233, 5-Cyclopropyl-N-(cyclopropylsulfonyl)-4-((1-(3,4-dichlorobenzoyl)piperidin-4-yl)methoxy)-2-fluorobenzamide]	31
C[C@H](c1cc(F)cc(C(F)(F)F)c1)N1CCC(C)(COc2cc(F)c(C(=O)NS(C)(=O)=O)cc2C2CC2)CC1 [Example 170, (R)-5-cyclopropyl-2-fluoro-4-((1-(1-(3-fluoro-5-(trifluoromethyl)phenyl)ethyl)-4-methylpiperidin-4-yl)methoxy)-N-(methylsulfonyl)benzamide]	5
CCS(=O)(=O)NC(=O)c1cc(C2CC2)c(OCC2CCN(Cc3ccc(Cl)cc3Cl)CC2)cc1F [Example 213, 5-cyclopropyl-4-((1-(2,4-dichlorobenzyl)piperidin-4-yl)methoxy)-N-(ethylsulfonyl)-2-fluorobenzamide]	2.5
CS(=O)(=O)NC(=O)c1cc(C2CC2)c(OCC2CCN(C(c3cccc(Cl)c3)c3cccc(Cl)c3)CC2)cc1F [Example 352, 4-((1-(bis(3-chlorophenyl)methyl)piperidin-4-yl)methoxy)-5-cyclopropyl-2-fluoro-N-(methylsulfonyl)benzamide, trifluoroacetic acid salt]	2
CS(=O)(=O)NC(=O)c1cc(C2CC2)c(OCC2CCN(Cc3cc(Cl)c(F)cc3F)CC2)cc1F [Example 455, trifluoroacetic acid salt]	8.5
CS(=O)(=O)NC(=O)c1cc(C2CC2)c(OCC2CN([C@H](c3ccccc3)c3ccccc3F)C2)cc1F [Example 125, (R)-5-Cyclopropyl-2-fluoro-4-((1-((2-fluorophenyl)(phenyl)methyl)azetidin-3-yl)methoxy)-N-(methylsulfonyl)benzamide]	25
O=C(NS(=O)(=O)N1CCC1)c1cc(C2CC2)c(O[C@@H]2CCN(Cc3ccccc3)C2)cc1F [Example 46, (R)—N-(azetidin-1-ylsulfonyl)-4-((1-benzylpyrrolidin-3-yl)oxy)-5-cyclopropyl-2-fluorobenzamide]	920
COc1ccc(CN2CCC(COc3cc(F)c(C(=O)NS(C)(=O)=O)cc3C3CC3)CC2)cc1Cl [Example 183, 4-((1-(3-Chloro-4-methoxybenzyl)piperidin-4-yl)methyoxy)-5-cyclopropyl-2-fluoro-N-(methylsulfonyl)benzamide]	47
CS(=O)(=O)NC(=O)c1cc(C2CC2)c(OCC2CN(C(c3ccccc3)c3ccc(Cl)c(Cl)c3)C2)cc1F (stereo not drawn) [Example 80, 5-Cyclopropyl-4-((1-((3,4-dichlorophenyl)(phenyl)methyl)azetidin-3-yl)methoxy)-2-fluoro-N-(methylsulfonyl)benzamide]	4.05
CCC(c1cc(Cl)cc(Cl)c1)N1CCC(COc2cc(F)c(C(=O)NS(C)(=O)=O)cc2C2CC2)CC1 (stereo not drawn) [Example 155, 5-Cyclopropyl-4-((1-(1-(3,5-dichlorophenyl)propyl)piperidin-4-yl)methoxy)-2-fluoro-N-(methylsulfonyl)benzamide]	2.02
C[C@H](c1ccc(F)cc1Cl)N1C[C@H](Oc2cc(F)c(C(=O)NS(C)(=O)=O)cc2C2CC2)CC(C)(C)C1 [Example 452, 4-(((R)-1-((R)-1-(2-chloro-4-fluorophenyl)ethyl)-5,5-dimethylpiperidin-3-yl)oxy)-5-cyclopropyl-2-fluoro-N-(methylsulfonyl)benzamide, trifluoroacetic acid salt]	43.2
CS(=O)(=O)NC(=O)c1cc(C2CC2)c(OCC2CCN(CC(F)(F)F)CC2)cc1F [Example 116, 5-Cyclopropyl-2-fluoro-N-(methylsulfonyl)-4-((1-(2,2,2-trifluoroethyl)-piperidin-4-yl)methoxy)benzamide]	77.5
CCS(=O)(=O)NC(=O)c1cc(C2CC2)c(OCC2CCN([C@](C)(COC)c3cc(Cl)cc(Cl)c3)CC2)cc1F (single isomer, unassigned) [Example 203]	3.6
COCC(c1cc(Cl)cc(Cl)c1)N1CC(COc2cc(F)c(C(=O)NS(C)(=O)=O)cc2C2CC2)C1 (stereo not drawn) [Example 91, 5-Cyclopropyl-4-((1-(1-(3,5-dichlorophenyl)-2-methoxyethyl)azetidin-3-yl)methoxy)-2-fluoro-N-(methylsulfonyl)benzamide]	14.7
C[C@@H](c1ccc(Cl)cc1Cl)N1CCC(COc2cc(F)c(C(=O)NS(C)(=O)=O)cc2C2CC2)CC1 [Example 238, (S)-5-cyclopropyl-4-((1-(1-(2,4-dichlorophenyl)ethyl)piperidin-4-yl)methoxy)-2-fluoro-N-(methylsulfonyl)benzamide]	2.2
C[C@H](c1cc(Cl)cc(Cl)c1)N1CCC(C)(COc2cc(F)c(C(=O)NS(C)(=O)=O)cc2C2CC2)CC1 (single isomer, unassigned) [Example 212]	2.7
O=C(NS(=O)(=O)N1CCC1)c1cc(C2CC2)c(O[C@@H]2CCCN(c3ccccn3)C2)cc1F [Example 493, (R)—N-(azetidin-1-ylsulfonyl)-5-cyclopropyl-2-fluoro-4-((1-(pyridin-2-yl)piperidin-3-yl)oxy)benzamide]	243
CS(=O)(=O)NC(=O)c1cc(C2CC2)c(OCCC2CCN(Cc3cc(Cl)cc(Cl)c3)CC2)cc1F [Example 302, 5-cyclopropyl-4-(2-(1-(3,5-dichlorobenzyl)piperidin-4-yl)ethoxy)-2-fluoro-N-(methylsulfonyl)benzamide, trifluoroacetic acid salt]	5.7
C[C@@H](c1cc(Cl)cc(Cl)c1)N1CCC(C)(COc2cc(F)c(C(=O)NS(C)(=O)=O)cc2C2CC2)CC1 (single isomer, unassigned) [Example 211]	1.7
CS(=O)(=O)NC(=O)c1cc(C2CC2)c(OCC2CCN(Cc3ccccc3C(F)(F)F)CC2)cc1F [Example 159, 5-Cyclopropyl-2-fluoro-N-(methylsulfonyl)-4-((1-(2-(trifluoromethyl)-benzyl)piperidin-4-yl)methoxy)benzamide]	5.42
CCS(=O)(=O)NC(=O)c1cc(C2CC2)c(OCC2CCN([C@@](C)(COC)c3cc(Cl)cc(Cl)c3)CC2)cc1F (single isomer, unassigned) [Example 204]	2.7
C[C@@H](c1cc(Cl)cc(Cl)c1)N1CC(COc2cc(F)c(C(=O)NS(C)(=O)=O)cc2C2CC2)C1 [Example 120, (S)-5-Cyclopropyl-4-((1-(1-(3,5-dichlorophenyl)ethyl)azetidin-3-yl)methoxy)-2-fluoro-N-(methylsulfonyl)benzamide]	20.6
CCS(=O)(=O)NC(=O)c1cc(C2CC2)c(OCC2CCN(C(C)(C)c3cc(Cl)cc(Cl)c3)CC2)cc1F [Example 210, 5-Cyclopropyl-4-((1-(2-(3,5-dichlorophenyl)propan-2-yl)piperidin-4-yl)methoxy)-N-(ethylsulfonyl)-2-fluorobenzamide]	1.9
CS(=O)(=O)NC(=O)c1cc(C2CC2)c(O[C@@H]2CCCN(Cc3ccc(S(C)(=O)=O)cc3Cl)C2)cc1F [Example 441, (R)-4-((1-(2-chloro-4-(methylsulfonyl)benzyl)piperidin-3-yl)oxy)-5-cyclopropyl-2-fluoro-N-(methylsulfonyl)benzamide, trifluoroacetic acid salt]	138
